In patent US6924302B2, “Substituted triazole diamine derivatives as kinase inhibitors” (Ortho McNeil Pharmaceutical, Inc., priority 2000, dated 2005):
Like-named read-outs stand apart in the source and are kept apart here.

Legend:
CDK1:Cyclin-B = target: T1, CDK1:Cyclin-B (Homo sapiens, UniProt P06493); assay: CDK1 Screening Assay; type: biochemical; settings: read-out: CDK1 IC50
T1 construct: purchased New England Biolabs 6020; host or cells: insect cells
Procedure, shortened: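 Human CDK1:cyclin-B (30 ng/well) with biotinylated histone-H1 peptide and ^33P-γ-ATP, 1 h at 30° C, 1% DMSO, on streptavidin FlashPlate; incorporation read by scintillation.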

Insulin Receptor Kinase = Insulin Receptor Kinase (Homo sapiens, UniProt P06213); assay: Kinase Selectivity Assay Insulin Receptor Kinase; type: biochemical; settings: Kinase Selectivity, Tables 2a-2k; read-out: Insulin R Kinase IC50
Method: (§1) Assays to test compound inhibition of other kinases were preformed using methods that measure the amount of phosphorylation of a biotinylated peptide substrate. Biotinylated peptide substrates were selected from the literature as appropriate for the enzyme being evaluated. […] Assay conditions vary slightly for each protein kinase, for example, insulin receptor kinase requires 10 mM MnCl2 for activity and Calmodulin-dependent protein kinase requires calmodulin and 10 mM CaCl2. These assay conditions are known in the art. The reaction mixture was dispensed into the wells of a streptavidin coated Flashplate and 1 μl drug stock in 100% DMSO was added to a 100 μl reaction volume resulting in a final concentration of 1% DMSO on the reaction. Enzyme was diluted in 50 mM Tris-HCl pH=8.0, 0.1% BSA and add to each well. The reaction was incubated for one hour at 30° C. in the presence of compound. After one hour the reaction mix was aspirated from the plate and the plate was washed with PBS containing 100 mM EDTA. The plate was read on a scintillation counter to determine ^33P-γ-ATP incorporated into the immobilized peptide. Test compounds were assayed in duplicate at 8 concentrations [100 uM, 10 uM, 1 uM, 100 nM, 10 nM, 1 nM, 100 pM, 10 pM]. A maximum and minimum signal for the assay was determined on each plate. The IC50 was calculated from the dose response curve of the percent inhibition of the maximum signal in the assay according to the formula [max signal—background/test compound signal—background (100)=% inhibition] by graphing the percent inhibition against the log concentration of test compound. Known inhibitor compounds appropriate for the kinase being assayed were also included on each plate.
(§2) CDK2 in complex with cyclin A is commercially available (Upstate Biotech, Lake Placid, N.Y.). The CDK4 complex was composed of a mouse CDK4 protein and a mouse Cyclin D1 protein (The mouse CDK4 protein was genetically fused to an N-terminal Flag-epitope tag and the mouse Cyclin D1 protein was fused with an N-terminal AU-1 epitope tag. The genes encoding these proteins were transferred to commercially available baculoviral vectors. The recombinant CDK4/D1 complex was then made by co-infecting commercially available insect cells with viruses carrying these two constructs). […] ERK-1 protein (Discontinued from Calbiochem). EGFR (epidermal growth factor receptor) is purified from human A431 cell membranes (Sigma, St. Louis, Mo., Cat.# E3641).

Protein Kinase A = target: T2, Protein Kinase A (Bos taurus, UniProt P00517); assay: Kinase Selectivity Assay Protein Kinase A; type: biochemical, bovine; settings: Kinase Selectivity, Tables 2a-2k; read-out: PKA IC50
T2 construct: purified from bovine heart; purchased Upstate Biotech 14-114; host or cells: bovine heart
Method: as §1, §2

[1] = target: T3, Casein Kinase 1 (CK1 delta isoform) (Rattus norvegicus, UniProt Q06486); assay: Kinase Selectivity Assay Casein Kinase 1; type: biochemical; settings: Tables 2a-2k, read-out: Caseine Kinase 1 IC50
T3 construct: a truncation at amino acid 318 of the C-terminal portion of the rat CK1 delta isoform; purchased New England Biolabs 6030; host or cells: E. coli
T3 sequence (Q06486 1-317): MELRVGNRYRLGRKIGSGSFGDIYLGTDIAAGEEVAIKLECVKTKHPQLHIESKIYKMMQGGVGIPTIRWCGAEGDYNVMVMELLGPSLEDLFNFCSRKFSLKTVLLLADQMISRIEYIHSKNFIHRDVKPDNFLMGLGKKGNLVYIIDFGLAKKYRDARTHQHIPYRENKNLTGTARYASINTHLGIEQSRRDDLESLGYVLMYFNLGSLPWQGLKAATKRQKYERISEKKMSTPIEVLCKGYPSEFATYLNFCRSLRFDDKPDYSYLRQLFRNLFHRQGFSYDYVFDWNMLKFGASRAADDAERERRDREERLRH
Method: as §1, §2

[2] = target: T4, Casein Kinase 2 (alpha and beta subunits) (Homo sapiens, UniProt P68400); assay: Kinase Selectivity Assay Casein Kinase 2; type: biochemical; settings: Kinase Selectivity, Tables 2a-2k; read-out: Caseine Kinase 2 IC50
T4 construct: purchased New England Biolabs 6010; host or cells: E. coli
Method: as §1, §2

[3] = target: T5, Calmodulin Kinase (calmodulin-dependent protein kinase 2) (Rattus norvegicus, UniProt P11275); assay: Kinase Selectivity Assay Calmodulin Kinase; type: biochemical; settings: Kinase Selectivity, Tables 2a-2k; read-out: Calmodulin Kinase 2 IC50
T5 construct: a truncated version of the alpha subunit of the rat protein; purchased New England Biolabs 6060; host or cells: insect cells
Method: as §1, §2

[4] = target: T6, Glycogen Synthase Kinase-3 (beta isoform) (Oryctolagus cuniculus, UniProt G1T8E2); assay: Kinase Selectivity Assay Glycogen Synthase Kinase-3; type: biochemical, rabbit; settings: Kinase Selectivity, Tables 2a-2k; read-out: GSK-3 IC50
T6 construct: purchased New England Biolabs 6040; host or cells: E. coli
Method: as §1, §2

[5] = target: T7, MAP Kinase (ERK-2 isoform) (Rattus norvegicus, UniProt P63086); assay: Kinase Selectivity Assay MAP Kinase (ERK-2); type: biochemical; settings: Kinase Selectivity, Tables 2a-2k; read-out: ERK 2 IC50
T7 construct: polyhistidine (N); host or cells: E. coli
Method: as §1, §2

[6] = target: T8, PDGF-R (platelet derived growth factor receptor) beta subunit kinase domain (Homo sapiens, UniProt P09619); assay: Kinase Selectivity Assay PDGF-R; type: biochemical; settings: Kinase Selectivity, Tables 2a-2k; read-out: PDGF-R kinase IC50
T8 construct: nucleotides 1874-3507 of the human PDGF-R beta subunit kinase domain; polyhistidine (N)
Method: as §1, §2

[7] = target: T9, HER2 (human epidermal growth factor receptor-2) (Homo sapiens, UniProt P04626); assay: Kinase Selectivity Assay HER2; type: biochemical
T9 construct: begins at amino acid 676 followed by the remainder of the HER2 cytoplasmic domain; polyhistidine (N)
Procedure, shortened: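 Reactions ran one hour at 30° C in 1% DMSO with enzyme diluted in 50 mM Tris-HCl pH 8.0, 0.1% BSA. Scintillation counting read ^33P incorporated into immobilized biotinylated peptide.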

FGF-R2 = FGF-R2 (Homo sapiens, UniProt P21802); assay: Kinase Selectivity Assay FGF-R2; type: biochemical; settings: Tables 2a-2k
Method: as §1

[8] = tested on: HeLa cervical adenocarcinoma; assay: Inhibition of Cell Proliferation (14C-thymidine incorporation), HeLa; type: cell-based; settings: Homo sapiens, HeLa cell line
Method: (§3) The ability of a test compound to inhibit the proliferation of cell growth was determined by measuring incorporation of ^14C-labelled thymidine into newly synthesized DNA within the cells. This method was used on cell lines derived from carcinomas originating from several tissues such as HeLa cervical adenocarcinoma (American Type Culture Collection (ATCC), Virginia, Cat. #CCL-2), A375 malignant melanoma (ATCC CRL-1619), SK-OV-3 ovarian adenocarcinoma (ATCC HTB-77) HCT-116 colon carcinoma (CCL-247), PC-3 prostate adenocarcinoma (ATCC CRL-1435), and MDA-MB-231 (Xenogen Corp.) In this way the effect of a compound on cell growth of cells with many different phenotypes can be determined. Cells were trypsinized and counted and 3000-8000 cells were added to each well of a 96-well CytoStar tissue culture treated scintillating microplate (Amersham #RPNQ0160) in complete medium in a volume of 100 μl. Cells were incubated for 24 hours in complete medium at 37° C. in an atmosphere containing 5% CO2. Next, 1 μl of test compound in 100% DMSO was added to the wells of the plate. DMSO only was added to control wells. Cells were incubated for 24 more hours in complete medium at 37° C. in an atmosphere containing 5% CO2. Methyl ^14C-thymidine 56 mCi/mmol (NEN #NEC568 or Amersham #CFA532) was diluted in complete medium and 0.2 uCi/well was added to each well of the CytoStar plate in a volume of 20 μl. The plate was incubated for 24 hours at 37° C. plus 5% CO2 in drug plus ^14C-thymidine. The contents of the plate were discarded into a ^14C radioactive waste container by inverting the plate and the plate was washed twice with 200 μl PBS. 200 μl of PBS is added to each well. The top of the plate was sealed with a transparent plate sealer and a white plate backing sealer (Packard #6005199) was applied to the bottom of the plate. The degree of methyl ^14C-thymidine incorporation was quantified on a Packard Top Count.

A375 malignant melanoma = assay: Inhibition of Cell Proliferation (14C-thymidine incorporation), A375; type: cell-based; settings: Homo sapiens, A-375, A375 cell line
Method: as §3

HCT-116 colon carcinoma = assay: Inhibition of Cell Proliferation (14C-thymidine incorporation), HCT-116; type: cell-based; settings: Homo sapiens, HCT-116 cell line
Method: as §3

[9] = tested on: PC-3 prostate adenocarcinoma; assay: Inhibition of Cell Proliferation (14C-thymidine incorporation), PC-3; type: cell-based; settings: Homo sapiens, PC-3 cell line
Method: as §3

[10] = target: T10, CDK2 in complex with cyclin A (Homo sapiens, UniProt P24941); assay: Kinase Selectivity Assay CDK2; type: biochemical; settings: Table 1
T10 construct: purchased Upstate Biotech
Method: as §1, §2

[11] = Kinase Selectivity, Tables 2a-2k, read-out: HER2 Kinase IC50

Chain of Insulin Receptor Kinase (P06213 980-1352): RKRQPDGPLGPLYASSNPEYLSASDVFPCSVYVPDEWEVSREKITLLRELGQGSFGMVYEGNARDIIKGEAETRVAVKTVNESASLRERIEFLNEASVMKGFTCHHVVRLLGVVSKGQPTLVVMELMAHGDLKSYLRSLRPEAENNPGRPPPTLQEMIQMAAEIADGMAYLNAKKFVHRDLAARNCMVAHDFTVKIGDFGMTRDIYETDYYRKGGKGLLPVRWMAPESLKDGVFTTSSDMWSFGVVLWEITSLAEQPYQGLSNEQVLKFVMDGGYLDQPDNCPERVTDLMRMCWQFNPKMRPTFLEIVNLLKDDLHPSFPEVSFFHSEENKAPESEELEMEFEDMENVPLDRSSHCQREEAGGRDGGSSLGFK
T4 sequence (P68400 whole entry): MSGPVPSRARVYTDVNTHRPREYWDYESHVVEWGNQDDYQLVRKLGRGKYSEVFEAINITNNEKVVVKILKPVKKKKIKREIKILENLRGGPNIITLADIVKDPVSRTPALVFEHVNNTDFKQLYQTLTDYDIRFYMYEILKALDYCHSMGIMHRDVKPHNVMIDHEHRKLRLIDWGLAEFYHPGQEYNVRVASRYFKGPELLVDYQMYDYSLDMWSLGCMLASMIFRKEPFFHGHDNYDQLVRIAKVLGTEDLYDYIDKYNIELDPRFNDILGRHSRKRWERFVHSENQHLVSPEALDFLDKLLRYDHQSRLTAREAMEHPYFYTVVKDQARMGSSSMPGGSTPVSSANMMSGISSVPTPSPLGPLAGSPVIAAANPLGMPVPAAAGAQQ
T4 sequence (P67870 whole entry partner): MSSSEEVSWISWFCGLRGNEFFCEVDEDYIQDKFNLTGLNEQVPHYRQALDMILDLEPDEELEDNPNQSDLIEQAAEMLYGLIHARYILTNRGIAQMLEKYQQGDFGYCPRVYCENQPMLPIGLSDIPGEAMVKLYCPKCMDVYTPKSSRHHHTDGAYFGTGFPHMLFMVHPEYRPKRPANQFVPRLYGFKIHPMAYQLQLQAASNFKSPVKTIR
T7 sequence (P63086 whole entry, canonical isoform): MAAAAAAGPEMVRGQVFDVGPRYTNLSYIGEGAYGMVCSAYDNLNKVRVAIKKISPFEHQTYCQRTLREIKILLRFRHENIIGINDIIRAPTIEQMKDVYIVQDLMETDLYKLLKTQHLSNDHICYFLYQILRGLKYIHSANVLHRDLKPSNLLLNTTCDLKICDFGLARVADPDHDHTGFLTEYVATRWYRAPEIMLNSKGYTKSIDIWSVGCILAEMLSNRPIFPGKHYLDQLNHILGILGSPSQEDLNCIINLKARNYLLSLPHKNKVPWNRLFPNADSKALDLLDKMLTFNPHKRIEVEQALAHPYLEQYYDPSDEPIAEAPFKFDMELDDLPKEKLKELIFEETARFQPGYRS
T8 sequence (P09619 564-1106): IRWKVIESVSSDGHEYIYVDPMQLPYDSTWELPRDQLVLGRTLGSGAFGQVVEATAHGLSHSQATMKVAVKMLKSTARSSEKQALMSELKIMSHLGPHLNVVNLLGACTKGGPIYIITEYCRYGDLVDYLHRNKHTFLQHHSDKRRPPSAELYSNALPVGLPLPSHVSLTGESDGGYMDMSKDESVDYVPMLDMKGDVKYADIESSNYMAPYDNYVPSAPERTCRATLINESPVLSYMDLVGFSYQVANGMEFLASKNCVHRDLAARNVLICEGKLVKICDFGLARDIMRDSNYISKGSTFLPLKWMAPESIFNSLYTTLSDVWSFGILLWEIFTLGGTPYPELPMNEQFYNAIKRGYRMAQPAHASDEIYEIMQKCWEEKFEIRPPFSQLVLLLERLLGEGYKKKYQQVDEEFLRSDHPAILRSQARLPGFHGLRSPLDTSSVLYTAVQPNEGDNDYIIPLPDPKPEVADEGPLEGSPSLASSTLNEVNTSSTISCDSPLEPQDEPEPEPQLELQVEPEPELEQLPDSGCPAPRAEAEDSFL
Chain of FGF-R2 (P21802 22-821, species assumed): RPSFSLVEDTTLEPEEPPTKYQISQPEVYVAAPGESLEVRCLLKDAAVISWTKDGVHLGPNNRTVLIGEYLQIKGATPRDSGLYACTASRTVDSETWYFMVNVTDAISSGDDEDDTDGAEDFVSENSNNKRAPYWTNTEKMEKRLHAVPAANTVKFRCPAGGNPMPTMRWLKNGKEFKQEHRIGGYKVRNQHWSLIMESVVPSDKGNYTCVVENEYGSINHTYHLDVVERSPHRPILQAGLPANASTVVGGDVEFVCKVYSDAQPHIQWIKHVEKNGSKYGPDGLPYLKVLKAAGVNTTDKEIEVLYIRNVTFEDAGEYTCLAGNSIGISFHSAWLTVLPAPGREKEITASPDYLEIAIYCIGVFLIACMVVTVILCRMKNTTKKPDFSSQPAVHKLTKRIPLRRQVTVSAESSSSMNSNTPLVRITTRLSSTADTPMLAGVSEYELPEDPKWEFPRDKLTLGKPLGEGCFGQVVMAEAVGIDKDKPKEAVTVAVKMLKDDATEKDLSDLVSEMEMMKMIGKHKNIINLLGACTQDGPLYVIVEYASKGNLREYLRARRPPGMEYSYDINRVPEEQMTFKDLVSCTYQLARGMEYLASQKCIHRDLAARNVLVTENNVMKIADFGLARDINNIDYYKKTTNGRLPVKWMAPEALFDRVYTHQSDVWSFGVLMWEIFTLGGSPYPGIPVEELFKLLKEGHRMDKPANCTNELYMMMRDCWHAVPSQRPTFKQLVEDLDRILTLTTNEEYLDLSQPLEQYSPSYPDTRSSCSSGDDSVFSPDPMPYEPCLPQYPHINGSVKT
T9 sequence (P04626 676-1255 limits assumed): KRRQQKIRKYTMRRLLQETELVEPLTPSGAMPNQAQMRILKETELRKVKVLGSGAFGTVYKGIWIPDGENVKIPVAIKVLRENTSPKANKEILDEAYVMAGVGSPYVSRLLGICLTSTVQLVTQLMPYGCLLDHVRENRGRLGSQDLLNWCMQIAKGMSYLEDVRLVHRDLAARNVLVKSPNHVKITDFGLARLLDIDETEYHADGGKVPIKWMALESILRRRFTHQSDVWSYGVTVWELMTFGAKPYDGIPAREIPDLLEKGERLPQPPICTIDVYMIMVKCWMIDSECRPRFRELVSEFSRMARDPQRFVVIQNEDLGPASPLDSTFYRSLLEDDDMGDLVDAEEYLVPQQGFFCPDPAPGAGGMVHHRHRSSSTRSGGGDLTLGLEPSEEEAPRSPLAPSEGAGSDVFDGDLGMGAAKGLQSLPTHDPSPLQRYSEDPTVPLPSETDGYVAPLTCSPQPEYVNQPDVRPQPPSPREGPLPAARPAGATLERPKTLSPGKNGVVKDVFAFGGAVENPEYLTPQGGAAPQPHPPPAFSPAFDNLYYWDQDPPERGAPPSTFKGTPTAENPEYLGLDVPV
T6 sequence (G1T8E2 1-432): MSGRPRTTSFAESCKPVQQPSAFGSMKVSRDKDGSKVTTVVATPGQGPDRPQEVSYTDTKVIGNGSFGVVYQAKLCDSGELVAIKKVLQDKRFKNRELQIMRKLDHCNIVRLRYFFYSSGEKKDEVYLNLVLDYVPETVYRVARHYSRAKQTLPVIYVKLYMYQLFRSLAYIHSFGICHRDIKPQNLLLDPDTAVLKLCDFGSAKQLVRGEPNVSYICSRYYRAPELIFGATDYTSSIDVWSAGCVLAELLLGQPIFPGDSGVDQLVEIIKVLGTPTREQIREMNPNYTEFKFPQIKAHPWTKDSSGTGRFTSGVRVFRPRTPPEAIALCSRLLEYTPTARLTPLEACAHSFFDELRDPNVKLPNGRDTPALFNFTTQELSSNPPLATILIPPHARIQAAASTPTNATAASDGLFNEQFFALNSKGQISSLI
T1 sequence (P06493 whole entry): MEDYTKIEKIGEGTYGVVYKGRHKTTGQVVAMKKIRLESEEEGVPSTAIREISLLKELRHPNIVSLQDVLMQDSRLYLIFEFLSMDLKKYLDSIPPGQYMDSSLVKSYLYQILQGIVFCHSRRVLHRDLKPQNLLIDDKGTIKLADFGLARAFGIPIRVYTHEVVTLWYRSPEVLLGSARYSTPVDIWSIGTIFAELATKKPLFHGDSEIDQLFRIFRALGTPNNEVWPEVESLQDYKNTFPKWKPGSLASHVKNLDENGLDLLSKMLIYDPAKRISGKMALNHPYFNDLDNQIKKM
T1 sequence (P14635 whole entry partner): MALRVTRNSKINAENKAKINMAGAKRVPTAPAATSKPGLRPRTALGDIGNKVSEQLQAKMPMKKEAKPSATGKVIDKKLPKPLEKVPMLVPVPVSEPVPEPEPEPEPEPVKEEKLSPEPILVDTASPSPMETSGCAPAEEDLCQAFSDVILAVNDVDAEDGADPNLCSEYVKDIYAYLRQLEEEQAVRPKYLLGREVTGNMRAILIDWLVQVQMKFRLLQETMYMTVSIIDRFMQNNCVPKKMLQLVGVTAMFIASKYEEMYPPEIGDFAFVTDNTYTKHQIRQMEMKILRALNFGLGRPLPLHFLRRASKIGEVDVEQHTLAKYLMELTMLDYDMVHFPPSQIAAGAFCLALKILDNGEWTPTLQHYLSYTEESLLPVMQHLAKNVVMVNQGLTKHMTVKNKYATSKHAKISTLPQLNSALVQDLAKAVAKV

SMILES	IC50 (CDK1:Cyclin-B; Kinase Selectivity, Tables 2a-2k)	IC50 (CDK1:Cyclin-B; Table 1)	IC50 (Insulin Receptor Kinase)	IC50 (Protein Kinase A)	IC50 [1]	IC50 [2]	IC50 [3]	IC50 [4]	IC50 [5]	IC50 [6]	IC50 [7, 11]	IC50 ([7]; Table 1, read-out: HER2 IC50)	IC50 (FGF-R2)	IC50 [8]	IC50 (A375 malignant melanoma)	IC50 (HCT-116 colon carcinoma)	IC50 [9]	IC50 [10]
Nc1ccc(F)c(C(=O)n2nc(Nc3ccc(S(N)(=O)=O)cc3)nc2N)c1F [Cpd 55, 4-[[5-amino-1-(3-amino-2,6-difluorobenzoyl)-1H-1,2,4-triazol-3-yl]amino]-benzenesulfonamide]	20 nM	22 nM	> 100000 nM	> 100000 nM	9600 nM	> 100000 nM	> 100000 nM	40 nM	12900 nM	16200 nM	2190 nM	2190 nM	478 nM					
CNS(=O)(=O)c1ccc(Nc2nc(N)n(C(=O)c3sc(C)cc3C)n2)cc1 [Cpd 83, 4-[[5-amino-1-[(3,5-dimethyl-2-thienyl)carbonyl]-1H-1,2,4-triazol-3-yl]amino]-N-methyl-benzenesulfonamide]			> 10000 nM	> 100000 nM	275 nM	> 100000 nM	> 100000 nM	7 nM	> 100000 nM	113 nM	13 nM	13 nM	22 nM	122 nM	556 nM	192 nM	12 nM	
Cc1cc(C)c(C(=O)n2nc(Nc3ccc(-n4ccnc4)cc3)nc2N)s1 [Cpd 92, 1-[(3,5-dimethyl-2-thienyl)carbonyl]-N^3-[4-(1H-imidazol-1-yl)phenyl]-1H-1,2,4-triazole-3,5-diamine]			3080 nM	> 100000 nM	> 10000 nM	> 100000 nM	19700 nM	21 nM	> 100000 nM	282 nM			242 nM	269 nM			1120 nM	
Cc1ccc(F)c(C(=O)n2nc(Nc3ccc(S(=O)(=O)NCCN(C)C)cc3)nc2N)c1F [Cpd 105]			9850 nM	> 100000 nM	4490 nM	> 100000 nM	> 100000 nM	82 nM	18200 nM	2200 nM			142 nM	626 nM	652 nM	320 nM		2 nM
